“Also recorded” adds a separate entry of the source. Where two headings read alike, the source gives them in different places.
Legend:
CYP2C19 = CYP2C19 (Homo sapiens, UniProt P33261); assay: CYP450 inhibition in HLM
HTR3A = molecular target: T1, HTR3A (Homo sapiens, UniProt P46098); assay: Safety47 HTR3A antagonist assay; format: cell-based
T1 construct: Eurofins (DiscoverX Safety47)
Method: Screening for off-target pharmacology across multiple drug target classes was performed in the DiscoverX Safety47 panel as the SAFETYscan E/IC50 ELECT service by Eurofins (San Diego CA, U.S.A.). Assay information and data are presented in the Supporting Information.
Safety pharmacology studies
Screening for off-target pharmacology across multiple drug target classes was performed in the DiscoverX Safety47™ panel as the SAFETYscan E/IC50 ELECT service by eurofins (San Diego CA, U.S.A.). The assays were performed utilizing the PathHunter enzyme fragment complementation (EFC) technology, FLIPR®-based cellular screening assays, KINOMEscan kinase binding assays, and a variety of enzymatic assays (78 assays).

[1] = molecular target: kinase named in conditions (Homo sapiens, UniProt Q02750, S218D/S222D); assay: SelectScreen kinase profiling, SSBK LanthaScreen Binding SP Technology; conditions: MAP2K1 (MEK1) S218D S222D, 10 μM
Method: (§1) Kinase selectivity screening was performed by Thermo Fisher Scientific (Paisley, U.K.) in their SelectScreen Biochemical Kinase Profiling Service. Assay information and data are presented in the Supporting Information.
(§2) Kinase selectivity screening was performed by ThermoFisher Scientific (Paisley, U.K.) in their SelectScreenTM
(§3) Biochemical Kinase Profiling service .
(§4) Illustration reproduced courtesy of Cell Signaling technology, Inc.
(§5) (B) Illustration of phylogenetic tree of kinases screened.

[2] = molecular target: kinase named in conditions (Homo sapiens, UniProt P19525); assay: as above; conditions: EIF2AK2 (PKR), 10 μM
Method: as §1, §2, §3, §4, §5

[3] = molecular target: kinase named in conditions (Homo sapiens, UniProt Q9UEW8); assay: as above; conditions: STK39 (STLK3), 10 μM
Method: as §1, §2, §3, §4, §5

[4] = molecular target: kinase named in conditions (Homo sapiens, UniProt Q14004); assay: as above; conditions: read-out: % Inhibition mean
Method: as §1, §2, §3, §4, §5

[5] = molecular target: kinase named in conditions (Homo sapiens, UniProt Q02750); assay: as above; conditions: MAP2K1 (MEK1), 10 μM
Method: as §1, §2, §3, §4, §5

[6] = molecular target: kinase named in conditions (Homo sapiens, UniProt P10721, D820E); assay: as above; conditions: KIT D820E, 10 μM
Method: as §1, §2, §3, §4, §5

[7] = molecular target: kinase named in conditions (Homo sapiens, UniProt Q86SG6); assay: as above; conditions: NEK8, 10 μM
Method: as §1, §2, §3, §4, §5

[8] = molecular target: kinase named in conditions (Homo sapiens, UniProt P22612); assay: as above; conditions: PRKACG (PRKAC gamma), 10 μM
Method: as §1, §2, §3, §4, §5

[9] = molecular target: kinase named in conditions (Homo sapiens, UniProt Q8N5S9); assay: as above; conditions: CAMKK1 (CAMKKA), 10 μM
Method: as §1, §2, §3, §4, §5

[10] = molecular target: kinase named in conditions (Homo sapiens, UniProt Q13705); assay: as above; conditions: ACVR2B, 10 μM
Method: as §1, §2, §3, §4, §5

[11] = molecular target: kinase named in conditions (Homo sapiens, UniProt Q16832, N456S); assay: as above; conditions: DDR2 N456S, 10 μM
Method: as §1, §2, §3, §4, §5

[12] = molecular target: kinase named in conditions (Homo sapiens, UniProt P15056, V600E); assay: as above; conditions: BRAF V599E, 10 μM
Method: as §1, §2, §3, §4, §5

[13] = molecular target: kinase named in conditions (Homo sapiens, UniProt Q02763, Y1108F); assay: as above; conditions: TEK (TIE2) Y1108F, 10 μM
Method: as §1, §2, §3, §4, §5

[14] = molecular target: kinase named in conditions (Homo sapiens, UniProt Q00535); assay: as above; conditions: CDK5 (Inactive), 10 μM
Method: as §1, §2, §3, §4, §5

[15] = molecular target: kinase named in conditions (Homo sapiens, UniProt Q9Y2K2); assay: as above; conditions: SIK3, 10 μM
Method: as §1, §2, §3, §4, §5

[16] = molecular target: kinase named in conditions (Homo sapiens, UniProt Q86YV6); assay: as above; conditions: MYLK4, 10 μM
Method: as §1, §2, §3, §4, §5

[17] = molecular target: kinase named in conditions (Homo sapiens, UniProt Q8IYT8); assay: as above; conditions: ULK2, 10 μM
Method: as §1, §2, §3, §4, §5

[18] = molecular target: kinase named in conditions (Homo sapiens, UniProt Q92630); assay: as above; conditions: DYRK2, 10 μM
Method: as §1, §2, §3, §4, §5

[19] = molecular target: kinase named in conditions (Homo sapiens, UniProt P54646); assay: as above; conditions: 10 μM
Method: as §1, §2, §3, §4, §5

[20] = molecular target: kinase named in conditions (Homo sapiens, UniProt P04049, Y340D/Y341D); assay: as above; conditions: RAF1 (cRAF) Y340D Y341D, 10 μM
Method: as §1, §2, §3, §4, §5

[21] = molecular target: kinase named in conditions (Homo sapiens, UniProt Q00536); assay: as above; conditions: CDK16 (PCTK1)/cyclin Y, 10 μM
Method: as §1, §2, §3, §4, §5

[22] = molecular target: kinase named in conditions (Homo sapiens, UniProt O14976); assay: as above; conditions: GAK, 10 μM
Method: as §1, §2, §3, §4, §5

[23] = molecular target: kinase named in conditions (Homo sapiens, UniProt Q09013); assay: as above; conditions: DMPK, 10 μM
Method: as §1, §2, §3, §4, §5

[24] = molecular target: kinase named in conditions (Homo sapiens, UniProt Q96GX5); assay: as above; conditions: MASTL, 10 μM
Method: as §1, §2, §3, §4, §5

[25] = molecular target: kinase named in conditions (Homo sapiens, UniProt Q9UBE8); assay: as above; conditions: NLK, 10 μM
Method: as §1, §2, §3, §4, §5

[26] = molecular target: kinase named in conditions (Homo sapiens, UniProt P30291); assay: as above; conditions: WEE1, 10 μM
Method: as §1, §2, §3, §4, §5

[27] = molecular target: kinase named in conditions (Homo sapiens, UniProt Q13131); assay: as above; conditions: 10 μM
Method: as §1, §2, §3, §4, §5

CYP450 enzymes = assay: CYP time-dependent inactivation (IC50 shift); format: in vitro ADME, human; conditions: HLM preincubation ± NADPH

Chain of kinase named in conditions (Homo sapiens, UniProt Q13131) (Q13131 whole entry): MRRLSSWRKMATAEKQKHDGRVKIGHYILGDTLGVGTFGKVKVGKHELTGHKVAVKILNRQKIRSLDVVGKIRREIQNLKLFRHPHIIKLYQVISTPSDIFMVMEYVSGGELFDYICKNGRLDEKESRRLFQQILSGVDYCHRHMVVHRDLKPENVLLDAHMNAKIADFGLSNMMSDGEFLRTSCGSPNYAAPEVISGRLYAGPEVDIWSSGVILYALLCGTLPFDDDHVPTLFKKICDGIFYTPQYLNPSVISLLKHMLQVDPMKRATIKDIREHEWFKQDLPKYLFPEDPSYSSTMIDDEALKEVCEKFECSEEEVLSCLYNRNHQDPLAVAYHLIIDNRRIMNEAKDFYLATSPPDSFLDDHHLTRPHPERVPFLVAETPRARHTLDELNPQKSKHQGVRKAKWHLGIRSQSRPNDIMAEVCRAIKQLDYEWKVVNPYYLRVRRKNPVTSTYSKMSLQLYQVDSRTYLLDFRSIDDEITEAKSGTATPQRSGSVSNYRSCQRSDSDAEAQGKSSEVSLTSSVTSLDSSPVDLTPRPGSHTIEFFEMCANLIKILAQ
Chain of CYP2C19 (P33261 whole entry): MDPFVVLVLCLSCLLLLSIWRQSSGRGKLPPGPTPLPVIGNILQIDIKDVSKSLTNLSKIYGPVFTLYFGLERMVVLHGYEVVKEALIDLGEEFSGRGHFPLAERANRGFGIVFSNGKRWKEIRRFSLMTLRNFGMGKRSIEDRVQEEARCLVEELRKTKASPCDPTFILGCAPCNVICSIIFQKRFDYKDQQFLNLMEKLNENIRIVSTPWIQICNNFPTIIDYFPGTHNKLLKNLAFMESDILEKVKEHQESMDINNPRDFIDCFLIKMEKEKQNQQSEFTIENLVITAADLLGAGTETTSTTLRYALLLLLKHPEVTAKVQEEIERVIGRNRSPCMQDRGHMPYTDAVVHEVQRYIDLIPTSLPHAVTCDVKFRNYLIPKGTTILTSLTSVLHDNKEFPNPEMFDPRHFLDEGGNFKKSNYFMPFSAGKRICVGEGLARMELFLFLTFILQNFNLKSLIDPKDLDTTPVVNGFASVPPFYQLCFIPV
Chain of kinase named in conditions (Homo sapiens, UniProt P54646) (P54646 whole entry): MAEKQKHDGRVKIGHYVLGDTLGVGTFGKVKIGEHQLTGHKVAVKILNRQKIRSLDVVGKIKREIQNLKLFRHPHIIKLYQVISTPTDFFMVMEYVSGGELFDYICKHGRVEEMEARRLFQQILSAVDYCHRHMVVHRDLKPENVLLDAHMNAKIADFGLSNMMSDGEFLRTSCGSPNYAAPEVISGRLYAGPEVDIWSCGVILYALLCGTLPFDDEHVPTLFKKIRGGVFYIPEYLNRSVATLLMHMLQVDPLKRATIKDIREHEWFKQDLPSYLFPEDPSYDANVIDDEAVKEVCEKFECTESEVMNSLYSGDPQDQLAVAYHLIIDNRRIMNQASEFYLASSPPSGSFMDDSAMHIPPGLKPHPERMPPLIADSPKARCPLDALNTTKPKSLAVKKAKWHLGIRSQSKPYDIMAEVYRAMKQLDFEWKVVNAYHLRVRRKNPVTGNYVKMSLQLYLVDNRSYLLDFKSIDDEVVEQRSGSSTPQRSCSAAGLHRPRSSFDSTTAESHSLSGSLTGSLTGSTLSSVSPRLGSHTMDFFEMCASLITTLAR
Chain of kinase named in conditions (Homo sapiens, UniProt Q00536) (Q00536 whole entry): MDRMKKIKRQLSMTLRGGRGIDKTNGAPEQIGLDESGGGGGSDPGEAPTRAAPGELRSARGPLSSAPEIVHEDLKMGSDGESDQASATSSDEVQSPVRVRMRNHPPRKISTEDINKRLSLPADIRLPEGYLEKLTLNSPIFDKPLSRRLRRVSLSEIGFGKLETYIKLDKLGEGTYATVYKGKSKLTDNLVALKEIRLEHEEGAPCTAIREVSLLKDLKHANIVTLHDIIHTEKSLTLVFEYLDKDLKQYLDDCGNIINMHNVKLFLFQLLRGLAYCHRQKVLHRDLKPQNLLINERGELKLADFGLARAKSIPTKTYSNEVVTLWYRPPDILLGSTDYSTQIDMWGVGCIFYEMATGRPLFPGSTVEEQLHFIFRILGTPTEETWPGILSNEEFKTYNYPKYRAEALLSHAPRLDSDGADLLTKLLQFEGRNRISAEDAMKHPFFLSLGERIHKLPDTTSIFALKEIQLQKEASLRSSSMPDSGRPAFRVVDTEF
Chain of kinase named in conditions (Homo sapiens, UniProt Q00535) (Q00535 whole entry): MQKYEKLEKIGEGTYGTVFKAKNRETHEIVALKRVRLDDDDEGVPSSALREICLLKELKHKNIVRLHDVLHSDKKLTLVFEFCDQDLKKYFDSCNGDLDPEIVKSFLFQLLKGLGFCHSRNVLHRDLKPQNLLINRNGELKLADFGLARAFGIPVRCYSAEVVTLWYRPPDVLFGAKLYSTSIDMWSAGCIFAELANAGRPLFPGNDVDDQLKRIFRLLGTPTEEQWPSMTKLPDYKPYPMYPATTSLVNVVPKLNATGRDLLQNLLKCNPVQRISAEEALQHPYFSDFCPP
Chain of kinase named in conditions (Homo sapiens, UniProt Q92630) (Q92630 whole entry): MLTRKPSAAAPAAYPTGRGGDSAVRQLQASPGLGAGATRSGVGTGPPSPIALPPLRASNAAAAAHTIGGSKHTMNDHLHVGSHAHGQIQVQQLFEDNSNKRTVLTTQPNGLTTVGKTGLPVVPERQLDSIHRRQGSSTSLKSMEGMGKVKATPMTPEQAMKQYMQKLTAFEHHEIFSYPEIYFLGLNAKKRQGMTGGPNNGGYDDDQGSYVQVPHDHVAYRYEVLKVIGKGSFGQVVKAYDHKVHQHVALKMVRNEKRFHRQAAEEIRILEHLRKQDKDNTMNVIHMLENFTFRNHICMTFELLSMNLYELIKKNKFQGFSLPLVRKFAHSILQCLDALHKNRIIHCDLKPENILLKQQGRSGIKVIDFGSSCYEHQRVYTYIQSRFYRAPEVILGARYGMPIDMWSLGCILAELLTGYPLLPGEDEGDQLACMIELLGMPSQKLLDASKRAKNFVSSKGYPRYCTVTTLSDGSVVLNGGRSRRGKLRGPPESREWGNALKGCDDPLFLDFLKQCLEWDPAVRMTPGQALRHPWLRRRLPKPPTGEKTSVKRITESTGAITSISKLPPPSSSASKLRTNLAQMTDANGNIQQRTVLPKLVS
Chain of kinase named in conditions (Homo sapiens, UniProt Q02750, S218D/S222D) (Q02750 whole entry S218D/S222D): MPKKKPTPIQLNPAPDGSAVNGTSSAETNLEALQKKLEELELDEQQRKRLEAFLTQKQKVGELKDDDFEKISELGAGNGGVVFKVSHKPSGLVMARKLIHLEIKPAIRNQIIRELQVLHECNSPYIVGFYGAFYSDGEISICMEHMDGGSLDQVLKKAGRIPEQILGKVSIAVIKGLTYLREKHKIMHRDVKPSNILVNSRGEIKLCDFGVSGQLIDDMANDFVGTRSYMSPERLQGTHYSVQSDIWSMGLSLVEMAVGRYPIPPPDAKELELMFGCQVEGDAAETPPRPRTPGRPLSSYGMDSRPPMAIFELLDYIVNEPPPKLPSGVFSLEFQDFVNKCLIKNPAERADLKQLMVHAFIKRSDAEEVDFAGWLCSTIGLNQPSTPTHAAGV
Chain of kinase named in conditions (Homo sapiens, UniProt P30291) (P30291 whole entry): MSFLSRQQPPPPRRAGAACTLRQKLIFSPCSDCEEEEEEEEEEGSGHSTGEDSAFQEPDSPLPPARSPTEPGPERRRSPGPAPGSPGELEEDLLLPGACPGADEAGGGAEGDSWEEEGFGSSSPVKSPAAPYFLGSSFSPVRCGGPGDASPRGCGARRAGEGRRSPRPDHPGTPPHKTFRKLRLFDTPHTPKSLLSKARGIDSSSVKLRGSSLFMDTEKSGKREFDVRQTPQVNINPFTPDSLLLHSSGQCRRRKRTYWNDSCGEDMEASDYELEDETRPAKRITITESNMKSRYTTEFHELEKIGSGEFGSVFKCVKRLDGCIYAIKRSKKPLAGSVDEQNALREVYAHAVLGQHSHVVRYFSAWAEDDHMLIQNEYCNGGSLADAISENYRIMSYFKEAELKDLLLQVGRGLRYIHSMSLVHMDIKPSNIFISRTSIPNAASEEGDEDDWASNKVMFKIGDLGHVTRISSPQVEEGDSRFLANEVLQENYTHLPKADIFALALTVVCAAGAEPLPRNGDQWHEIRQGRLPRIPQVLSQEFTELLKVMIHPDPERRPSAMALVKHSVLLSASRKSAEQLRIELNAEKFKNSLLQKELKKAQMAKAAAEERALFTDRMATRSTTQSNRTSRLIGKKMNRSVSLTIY
Chain of kinase named in conditions (Homo sapiens, UniProt P15056, V600E) (P15056 whole entry V600E): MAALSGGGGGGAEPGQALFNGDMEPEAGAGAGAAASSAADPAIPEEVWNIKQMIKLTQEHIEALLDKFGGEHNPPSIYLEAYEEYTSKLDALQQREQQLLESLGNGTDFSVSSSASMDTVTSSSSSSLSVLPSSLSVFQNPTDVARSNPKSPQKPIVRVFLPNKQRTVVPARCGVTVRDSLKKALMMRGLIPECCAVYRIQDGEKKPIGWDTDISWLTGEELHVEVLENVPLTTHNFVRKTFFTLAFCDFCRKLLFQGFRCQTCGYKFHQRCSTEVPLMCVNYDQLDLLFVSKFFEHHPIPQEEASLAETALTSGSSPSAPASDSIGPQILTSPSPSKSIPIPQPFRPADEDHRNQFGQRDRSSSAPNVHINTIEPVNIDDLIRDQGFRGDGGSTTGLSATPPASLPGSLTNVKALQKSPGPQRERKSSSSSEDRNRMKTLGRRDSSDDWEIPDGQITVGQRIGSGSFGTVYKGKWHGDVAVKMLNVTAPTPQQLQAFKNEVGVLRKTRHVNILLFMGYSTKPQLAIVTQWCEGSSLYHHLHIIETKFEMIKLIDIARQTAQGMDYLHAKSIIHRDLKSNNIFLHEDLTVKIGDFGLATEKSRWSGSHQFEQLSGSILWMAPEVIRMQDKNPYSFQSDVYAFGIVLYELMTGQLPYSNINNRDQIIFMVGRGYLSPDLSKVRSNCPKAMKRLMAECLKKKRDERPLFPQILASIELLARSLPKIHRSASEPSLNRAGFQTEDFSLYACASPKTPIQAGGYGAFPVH

## FC(F)(F)c1c(Cl)ccc(-n2ccnn2)c1Cl [8l, 1-(2,4-Dichloro-3-(trifluoromethyl)phenyl)-1H-1,2,3-triazole]
CYP2C19
  IC50: 7.27 µM
CYP2C19; read-out: CYP inhibition IC50, 2C19, HLM
  IC50: 8.1 µM
CYP2C19; read-out: IC50 CYP2C19/S-Mephenytoin, (+)NADPH pre-incubation
  IC50: 8.07 µM
HTR3A
  IC50: 4.5 µM
[1]
  inhibition at 10 µM: 2%
[2]
  inhibition at 10 µM: 6%
[3]
  inhibition at 10 µM: 13%
[4]
  inhibition at 10 µM: 38%
[5]
  inhibition at 10 µM: 26%
[6]
  inhibition at 10 µM: -4%
[7]
  inhibition at 10 µM: 2%
[8]
  inhibition at 10 µM: 6%
[9]
  inhibition at 10 µM: -3%
[10]
  inhibition at 10 µM: 1%
[11]
  inhibition at 10 µM: 26%
[12]
  inhibition at 10 µM: 0%
[13]
  inhibition at 10 µM: -9%
[14]
  inhibition at 10 µM: 1%
[15]
  inhibition at 10 µM: 4%
[16]
  inhibition at 10 µM: -5%
[17]
  inhibition at 10 µM: 8%
[18]
  inhibition at 10 µM: -1%
[19]; AMPK (A2/B2/G1)
  inhibition at 10 µM: 12%
[19]; AMPK (A2/B2/G2)
  inhibition at 10 µM: 24%
[20]
  inhibition at 10 µM: -3%
[21]
  inhibition at 10 µM: 8%
[22]
  inhibition at 10 µM: 17%
[23]
  inhibition at 10 µM: 2%
[24]
  inhibition at 10 µM: -8%
[25]
  inhibition at 10 µM: 5%
[26]
  inhibition at 10 µM: 9%
[27]; AMPK (A1/B1/G2)
  inhibition at 10 µM: -13%
[27]; AMPK (A1/B1/G3)
  inhibition at 10 µM: -4%
[27]; AMPK (A1/B2/G1)
  inhibition at 10 µM: 6%
CYP450 enzymes
  CYP TDI: no evidence for CYP time-dependent inactivation (TDI); also recorded: negative

Source: paper PMC9150124, “Design of a Potent, Selective, and Brain-Penetrant Inhibitor of Wnt-Deactivating Enzyme Notum by Optimization of a Crystallographic Fragment Hit” (Journal of Medicinal Chemistry, 2022)
